In PubChem BioAssay AID248 (DTP/NCI, 2004):
“And” between values parts separate entries of the source, which are not always exact repeats. Identical values can stand only once. Toxic doses and inconclusive results are not listed. Cut-off read from the data, not from the text of the source: active = T/C of 150% or more; inactive = T/C below 125%. Square brackets hold non-standard residues; d marks the D form. Peptide text beside a SMILES is read from it. * marks the point of attachment. ξ: configuration not given here. Cbz = O=C(OCc1ccccc1)*; ξI = CCC(C)C(N)C(=O)O

System: L1210 leukemia ip in BDF1 mice, survival T/C
Assay: NCI In Vivo Anticancer Drug Screen. Data for tumor model L1210 Leukemia (intraperitoneal) in B6D2F1 (BDF1) mice
Conditions: endpoint: mean survival time, higher = longer survival
In short: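 Transplantable tumor model; survival measured in treated vs vehicle control mice. Value = treated/control.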

[1] = dose: 100.0 mg/kg/injection, schedule: Q01DX001 (ip), vehicle: saline
[2] = dose: 100.0 mg/kg/injection, schedule: Q01DX009 (ip), vehicle: saline
[3] = dose: 200.0 mg/kg/injection, schedule: Q01DX001 (ip), vehicle: saline
[4] = dose: 200.0 mg/kg/injection, schedule: Q01DX009 (ip), vehicle: saline
[5] = dose: 400.0 mg/kg/injection, schedule: Q01DX001 (ip), vehicle: saline
[6] = dose: 100.0 mg/kg/injection, schedule: Q01DX009 (ip), vehicle: Klucel (hydroxypropylcellulose) (HPC)
[7] = dose: 200.0 mg/kg/injection, schedule: Q01DX009 (ip), vehicle: Klucel (hydroxypropylcellulose) (HPC)
[8] = dose: 50.0 mg/kg/injection, schedule: Q01DX009 (ip), vehicle: Klucel (hydroxypropylcellulose) (HPC)
[9] = dose: 100.0 mg/kg/injection, schedule: Q04DX003 (ip), vehicle: Klucel (hydroxypropylcellulose) (HPC)
[10] = dose: 200.0 mg/kg/injection, schedule: Q04DX003 (ip), vehicle: Klucel (hydroxypropylcellulose) (HPC)
[11] = dose: 400.0 mg/kg/injection, schedule: Q04DX003 (ip), vehicle: Klucel (hydroxypropylcellulose) (HPC)
[12] = dose: 100.0 mg/kg/injection, schedule: Q04DX002 (ip), vehicle: Klucel (hydroxypropylcellulose) (HPC)
[13] = dose: 200.0 mg/kg/injection, schedule: Q04DX002 (ip), vehicle: Klucel (hydroxypropylcellulose) (HPC)
[14] = dose: 50.0 mg/kg/injection, schedule: Q01DX009 (ip), vehicle: saline
[15] = dose: 100.0 mg/kg/injection, schedule: Q01DX001 (ip), vehicle: carboxymethylcellulose (CMC)
[16] = dose: 100.0 mg/kg/injection, schedule: Q01DX001 (ip), vehicle: Klucel (hydroxypropylcellulose) (HPC)
[17] = dose: 200.0 mg/kg/injection, schedule: Q01DX001 (ip), vehicle: Klucel (hydroxypropylcellulose) (HPC)
[18] = dose: 400.0 mg/kg/injection, schedule: Q01DX001 (ip), vehicle: Klucel (hydroxypropylcellulose) (HPC)
[19] = dose: 25.0 mg/kg/injection, schedule: Q01DX009 (ip), vehicle: saline

Measured: T/C

[Cl][Al]([Cl])[Cl]
inactive: dose: 6.25 mg/kg/injection, schedule: Q01DX009 (ip), vehicle: saline 102 % of control | dose: 12.5 mg/kg/injection, schedule: Q01DX009 (ip), vehicle: saline 93 % of control | dose: 50.0 mg/kg/injection, schedule: Q04DX003 (ip), vehicle: saline 91 % of control | [1] 97 % of control and 89 % of control and 96 % of control | [2] 87 % of control | dose: 100.0 mg/kg/injection, schedule: Q04DX003 (ip), vehicle: saline 100 % of control and 87 % of control | [3] 98 % of control and 94 % of control | [4] 96 % of control | dose: 200.0 mg/kg/injection, schedule: Q04DX003 (ip), vehicle: saline 96 % of control and 101 % of control and 90 % of control | [5] 100 % of control and 114 % of control | dose: 400.0 mg/kg/injection, schedule: Q01DX009 (ip), vehicle: saline 91 % of control

C/C=C/C(=O)Nc1ccccc1F
inactive: [6] 93 % of control | [7] 103 % of control

CCC(C)c1ccccc1OC(=O)Nc1ccc(OC)cc1 (stereo not given)
inactive: [8] 105 % of control | [6] 92 % of control | [9] 96 % of control | [7] 95 % of control | [10] 94 % of control | [11] 100 % of control

CC#CC(C)(O)C(=O)OC (stereo not given)
inactive: dose: 100.0 mg/kg/injection, schedule: Q01DX001 (ip), vehicle: other 105 % of control | dose: 200.0 mg/kg/injection, schedule: Q01DX001 (ip), vehicle: other 98 % of control | dose: 400.0 mg/kg/injection, schedule: Q01DX001 (ip), vehicle: other 94 % of control

CC(C)(C)N1CC(C(=O)c2ccccc2)C1c1ccc([N+](=O)[O-])cc1 (stereo not given)
inactive: [9] 96 % of control | [10] 104 % of control

O=C(NO)c1ccc([N+](=O)[O-])cc1
inactive: [6] 92 % of control | dose: 180.0 mg/kg/injection, schedule: Q01DX015 (ip), vehicle: water 101 % of control | [7] 103 % of control | dose: 270.0 mg/kg/injection, schedule: Q01DX015 (ip), vehicle: water 107 % of control and 117 % of control and 119 % of control | dose: 400.0 mg/kg/injection, schedule: Q01DX001 (ip), vehicle: water 97 % of control | dose: 400.0 mg/kg/injection, schedule: Q01DX009 (ip), vehicle: Klucel (hydroxypropylcellulose) (HPC) 109 % of control | dose: 600.0 mg/kg/injection, schedule: Q01DX001 (ip), vehicle: water 97 % of control

CC(=O)NC1CCC(CC2CCCCC2)CC1 (stereo not given)
inactive: [6] 101 % of control | [9] 93 % of control and 102 % of control | [7] 116 % of control | [10] 103 % of control and 93 % of control | [11] 114 % of control and 93 % of control

O=C(O)C1CC1(Br)Br (stereo not given)
inactive: dose: 100.0 mg/kg/injection, schedule: Q04DX003 (ip), vehicle: acetone 87 % of control

ClC(c1ccccc1)c1nc2ccccc2[nH]1 (stereo not given)
inactive: [1] 94 % of control | [3] 96 % of control

O=[N+]([O-])c1cccc(C=Nc2ccc(Nc3ccccc3)cc2)c1
inactive: [12] 114 % of control | [13] 100 % of control | dose: 400.0 mg/kg/injection, schedule: Q04DX002 (ip), vehicle: Klucel (hydroxypropylcellulose) (HPC) 111 % of control

O=S(=O)(O)CCc1ccccn1
inactive: [14] 106 % of control | [2] 109 % of control | [4] 92 % of control

N#CC(C#N)=Cc1cccnc1
inactive: dose: 12.5 mg/kg/injection, schedule: Q04DX003 (ip), vehicle: Klucel (hydroxypropylcellulose) (HPC) 98 % of control | dose: 25.0 mg/kg/injection, schedule: Q04DX003 (ip), vehicle: Klucel (hydroxypropylcellulose) (HPC) 100 % of control | dose: 50.0 mg/kg/injection, schedule: Q01DX001 (ip), vehicle: carboxymethylcellulose (CMC) 101 % of control | dose: 50.0 mg/kg/injection, schedule: Q04DX003 (ip), vehicle: Klucel (hydroxypropylcellulose) (HPC) 93 % of control and 104 % of control | [15] 98 % of control

O=C1C=CC(=O)N1c1cccc(N2C(=O)C=CC2=O)c1
inactive: dose: 8.0 mg/kg/injection, schedule: Q04DX003 (ip), vehicle: saline 102 % of control | dose: 16.0 mg/kg/injection, schedule: Q04DX003 (ip), vehicle: saline 95 % of control

CCOC(=O)C(=CC(CC)(C(=O)OCC)C(=O)OCC)C(=O)OCC
inactive: [1] 101 % of control | [3] 97 % of control | [5] 95 % of control

CCc1c(CNc2ccc(C(=O)NC(CC(=O)O)CC(=O)O)cc2)ccc2nc(N)nc(N)c12
inactive: dose: 0.25 mg/kg/injection, schedule: Q01DX009 (ip), vehicle: saline 114 % of control | dose: 1.0 mg/kg/injection, schedule: Q01DX009 (ip), vehicle: saline 103 % of control | dose: 1.0 mg/kg/injection, schedule: Q04DX003 (ip), vehicle: saline 118 % of control

NC(CSSCC(NC(=O)CNC(=O)OCc1ccccc1)C(=O)O)C(=O)O (stereo not given)
inactive: [16] 93 % of control | [17] 90 % of control | [18] 98 % of control

CN(CC#N)CC#N
inactive: [19] 105 % of control | [14] 95 % of control

CCC(C)C(NC(=O)CNC(=O)OCc1ccccc1)C(N)=O (stereo not drawn) (Cbz-Gly-[ξI]-NH2)
inactive: dose: 100.0 mg/kg/injection, schedule: Q04DX003 (ip), vehicle: saline with Tween-80 103 % of control | dose: 200.0 mg/kg/injection, schedule: Q04DX003 (ip), vehicle: saline with Tween-80 97 % of control | dose: 400.0 mg/kg/injection, schedule: Q04DX003 (ip), vehicle: saline with Tween-80 95 % of control

CC(=[N-])CC(C)=O.CC(=[N-])CC(C)=O.[Co+2]
inactive: dose: 12.5 mg/kg/injection, schedule: Q01DX001 (ip), vehicle: saline 86 % of control | dose: 25.0 mg/kg/injection, schedule: Q01DX001 (ip), vehicle: saline 98 % of control

[Br][Sb]([Br])([c]1ccccc1)([c]1ccccc1)[c]1ccccc1
inactive: [8] 91 % of control | [6] 97 % of control | [12] 90 % of control | [13] 87 % of control

Oc1c(Cl)cc(Cl)cc1/C=N\Nc1ccccn1
inactive: [16] 92 % of control | [17] 95 % of control | [18] 95 % of control

CC(=O)OCCC/C(=C\c1ccc2ccccc2c1)[N+](=O)[O-]
inactive: [15] 98 % of control | dose: 200.0 mg/kg/injection, schedule: Q01DX001 (ip), vehicle: carboxymethylcellulose (CMC) 93 % of control | dose: 400.0 mg/kg/injection, schedule: Q01DX001 (ip), vehicle: carboxymethylcellulose (CMC) 89 % of control

NCC(N)C(=O)O (stereo not given)
inactive: [1] 94 % of control | [3] 97 % of control | [5] 94 % of control

CCOC(=O)Cn1c(=O)c2ccccc2c2ccccc21
inactive: [9] 97 % of control | [10] 104 % of control | [11] 101 % of control

CC12CC3CC(C)(C1)CC(OCCN)(C3)C2
inactive: [19] 94 % of control | dose: 25.0 mg/kg/injection, schedule: Q04DX002 (ip), vehicle: saline 98 % of control | [14] 108 % of control | dose: 50.0 mg/kg/injection, schedule: Q04DX002 (ip), vehicle: saline 98 % of control | [2] 92 % of control | dose: 100.0 mg/kg/injection, schedule: Q04DX002 (ip), vehicle: saline 110 % of control and 117 % of control
